Results: US11878975B2, “Substituted indole compounds useful as TLR inhibitors” (BRISTOL-MYERS SQUIBB COMPANY, priority 2017, dated 2024)

How the values were obtained:
Assay type in all cases: cell-based
[1] = biological target: T1, human TLR7 (Homo sapiens, UniProt Q9NYK1); experiment: TLR7 inhibition reporter assay (HEK-Blue cells, SEAP reporter, gardiquimod stimulation); conditions: HEK-Blue cells overexpressing human TLR7, SEAP reporter, gardiquimod 7.5 μM
T1 construct: host or cells: HEK-Blue cells
T1 sequence (Q9NYK1 27-1049): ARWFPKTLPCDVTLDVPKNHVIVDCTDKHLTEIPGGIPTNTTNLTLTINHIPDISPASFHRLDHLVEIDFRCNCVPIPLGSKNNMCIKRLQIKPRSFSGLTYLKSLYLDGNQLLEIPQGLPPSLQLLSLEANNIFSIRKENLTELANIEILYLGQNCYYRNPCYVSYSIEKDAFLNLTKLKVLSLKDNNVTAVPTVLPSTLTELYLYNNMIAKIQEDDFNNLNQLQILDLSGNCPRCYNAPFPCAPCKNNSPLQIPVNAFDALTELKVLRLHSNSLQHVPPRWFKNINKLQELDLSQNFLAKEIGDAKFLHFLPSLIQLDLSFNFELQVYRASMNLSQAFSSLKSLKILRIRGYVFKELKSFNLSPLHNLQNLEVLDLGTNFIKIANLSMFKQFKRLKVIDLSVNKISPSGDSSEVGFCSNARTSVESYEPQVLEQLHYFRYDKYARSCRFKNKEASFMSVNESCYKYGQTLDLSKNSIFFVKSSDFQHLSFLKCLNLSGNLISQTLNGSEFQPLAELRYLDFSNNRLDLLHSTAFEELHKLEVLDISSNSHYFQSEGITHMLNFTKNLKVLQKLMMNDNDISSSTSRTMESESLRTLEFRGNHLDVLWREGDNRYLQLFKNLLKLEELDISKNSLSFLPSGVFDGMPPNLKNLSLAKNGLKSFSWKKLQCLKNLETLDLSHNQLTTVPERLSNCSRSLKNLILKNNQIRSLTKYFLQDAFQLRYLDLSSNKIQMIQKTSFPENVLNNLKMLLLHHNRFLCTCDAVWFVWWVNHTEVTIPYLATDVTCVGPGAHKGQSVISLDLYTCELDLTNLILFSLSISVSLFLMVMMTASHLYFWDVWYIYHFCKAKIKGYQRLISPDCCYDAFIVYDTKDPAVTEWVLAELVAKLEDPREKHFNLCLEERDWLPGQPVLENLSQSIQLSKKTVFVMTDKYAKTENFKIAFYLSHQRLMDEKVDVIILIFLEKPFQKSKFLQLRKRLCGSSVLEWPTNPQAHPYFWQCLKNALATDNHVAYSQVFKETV
In short: (§1)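 SEAP readout after 22 h agonist exposure at 37 °C; final agonist levels were 7.5 μM gardiquimod (TLR7), 15.9 μM R848 (TLR8) and 5 nM ODN2006 (TLR9). Inhibitors, spanning 0.05 nM to 50 μM final, were applied 30 min beforehand.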

[2] = biological target: T2, human TLR8 (Homo sapiens, UniProt Q9NR97); experiment: TLR8 inhibition reporter assay (HEK-Blue cells, SEAP reporter, R848 stimulation); conditions: HEK-Blue cells overexpressing human TLR8, SEAP reporter, R848 15.9 μM
T2 construct: host or cells: HEK-Blue cells
T2 sequence (Q9NR97 27-1041): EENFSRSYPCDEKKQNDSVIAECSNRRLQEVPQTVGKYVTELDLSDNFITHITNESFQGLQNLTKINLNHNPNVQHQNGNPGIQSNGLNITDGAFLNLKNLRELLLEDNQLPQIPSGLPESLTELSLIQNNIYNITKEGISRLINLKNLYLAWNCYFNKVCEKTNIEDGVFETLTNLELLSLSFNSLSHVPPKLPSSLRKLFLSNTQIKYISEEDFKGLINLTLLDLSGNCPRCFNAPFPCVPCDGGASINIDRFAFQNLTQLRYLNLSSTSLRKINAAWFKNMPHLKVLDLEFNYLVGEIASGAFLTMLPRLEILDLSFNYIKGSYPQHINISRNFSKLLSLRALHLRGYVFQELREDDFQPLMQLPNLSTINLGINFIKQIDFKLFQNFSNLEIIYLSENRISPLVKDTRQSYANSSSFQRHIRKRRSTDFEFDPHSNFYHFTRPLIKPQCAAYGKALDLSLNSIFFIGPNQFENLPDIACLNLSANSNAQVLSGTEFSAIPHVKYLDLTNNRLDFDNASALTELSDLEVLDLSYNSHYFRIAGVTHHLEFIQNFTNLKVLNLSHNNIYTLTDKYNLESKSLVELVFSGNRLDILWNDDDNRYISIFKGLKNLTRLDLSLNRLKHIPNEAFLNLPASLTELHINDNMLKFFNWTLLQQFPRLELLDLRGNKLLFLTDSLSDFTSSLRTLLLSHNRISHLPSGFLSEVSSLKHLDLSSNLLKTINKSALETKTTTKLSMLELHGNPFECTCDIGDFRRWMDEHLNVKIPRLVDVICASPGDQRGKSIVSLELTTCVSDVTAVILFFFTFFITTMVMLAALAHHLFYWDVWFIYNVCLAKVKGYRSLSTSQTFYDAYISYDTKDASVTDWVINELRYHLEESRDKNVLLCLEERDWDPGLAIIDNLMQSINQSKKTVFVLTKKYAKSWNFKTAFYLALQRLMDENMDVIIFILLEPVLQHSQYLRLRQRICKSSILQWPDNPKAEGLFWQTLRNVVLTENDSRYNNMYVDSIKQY
In short: as §1

[3] = biological target: T3, human TLR9 (Homo sapiens, UniProt Q9NR96); experiment: TLR9 inhibition reporter assay (HEK-Blue cells, SEAP reporter, ODN2006 stimulation); conditions: HEK-Blue cells overexpressing human TLR9, SEAP reporter, ODN2006 5 nM
T3 construct: host or cells: HEK-Blue cells
T3 sequence (Q9NR96 26-1032): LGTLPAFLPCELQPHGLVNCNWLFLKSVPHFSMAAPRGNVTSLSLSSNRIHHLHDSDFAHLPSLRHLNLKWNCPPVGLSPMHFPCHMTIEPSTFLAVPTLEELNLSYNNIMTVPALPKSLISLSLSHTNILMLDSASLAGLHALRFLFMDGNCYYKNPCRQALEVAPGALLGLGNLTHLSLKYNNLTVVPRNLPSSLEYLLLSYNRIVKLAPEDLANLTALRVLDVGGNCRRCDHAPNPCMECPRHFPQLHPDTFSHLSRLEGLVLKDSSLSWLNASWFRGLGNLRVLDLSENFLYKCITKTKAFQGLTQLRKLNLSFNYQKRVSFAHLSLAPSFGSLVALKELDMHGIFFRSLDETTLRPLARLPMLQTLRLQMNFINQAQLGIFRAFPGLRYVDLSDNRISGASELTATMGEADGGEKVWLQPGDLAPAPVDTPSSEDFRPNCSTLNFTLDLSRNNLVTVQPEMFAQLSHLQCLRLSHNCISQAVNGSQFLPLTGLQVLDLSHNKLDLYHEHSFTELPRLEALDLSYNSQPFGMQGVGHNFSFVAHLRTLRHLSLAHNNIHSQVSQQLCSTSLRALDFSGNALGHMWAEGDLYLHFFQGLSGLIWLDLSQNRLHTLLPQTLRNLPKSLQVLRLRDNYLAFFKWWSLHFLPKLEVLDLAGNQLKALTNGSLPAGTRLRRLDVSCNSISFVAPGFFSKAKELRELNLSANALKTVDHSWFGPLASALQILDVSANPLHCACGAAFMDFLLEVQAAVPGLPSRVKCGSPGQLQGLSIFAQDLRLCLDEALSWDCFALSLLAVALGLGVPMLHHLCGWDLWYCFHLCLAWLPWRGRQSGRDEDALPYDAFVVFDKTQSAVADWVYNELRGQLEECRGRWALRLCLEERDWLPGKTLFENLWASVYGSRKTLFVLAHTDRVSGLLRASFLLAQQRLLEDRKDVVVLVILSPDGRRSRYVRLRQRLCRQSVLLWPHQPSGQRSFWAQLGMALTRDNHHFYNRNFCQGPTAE
In short: as §1

COCCN1CCCC(c2ccc3[nH]c(-c4cc(OC)c5ncnn5c4)c(C(C)C)c3c2)C1 (stereo not drawn) [Example 251, 6-(3-isopropyl-5-(1-(2-methoxyethyl)piperidin-3-yl)-1H-indol-2-yl)-8-methoxy-[1,2,4]triazolo[1,5-a]pyridine]
IC50 [1]: 0.003 µM | IC50 [2]: 0.0032 µM | IC50 [3]: 5.26 µM

CNC(=O)CN1CCOC(c2ccc3[nH]c(-c4cc(OC)c5ncnn5c4)c(C(C)C)c3c2)C1 (stereo not drawn) [Example 310]
IC50 [1]: 0.015 µM | IC50 [2]: 0.057 µM | IC50 [3]: > 50 µM

Cc1c(-c2[nH]c3ccc(C4CC(NC(=O)CN(C)C)C4)cc3c2C(C)C)cn(C)c(=O)c1C (stereo not drawn) [Example 490]
IC50 [1]: 0.002 µM | IC50 [2]: 0.001 µM | IC50 [3]: 13.5 µM

Cc1cc(-c2[nH]c3ccc(C4CN(CC(=O)N(C)C)CCO4)cc3c2C(C)C)cn2ncnc12 (stereo not drawn) [Example 306, 2-(2-(3-isopropyl-2-(8-methyl-[1,2,4]triazolo[1,5-a]pyridin-6-yl)-1H-indol-5-yl)morpholino)-N,N-dimethylacetamide]
IC50 [1]: 0.008 µM | IC50 [2]: 0.039 µM | IC50 [3]: > 50 µM

CNC(=O)CN1CC(c2ccc3[nH]c(-c4cc(C)c5ncnn5c4)c(C(C)C)c3c2)C1 [Example 260, 2-(3-(3-isopropyl-2-(8-methyl-[1,2,4]triazolo[1,5-a]pyridin-6-yl)-1H-indol-5-yl)azetidin-1-yl)-N-methylacetamide]
IC50 [1]: 0.002 µM | IC50 [2]: 0.0039 µM | IC50 [3]: 5.25 µM

Cc1c(-c2[nH]c3ccc(C4CCC(N)CC4)cc3c2C(C)C)cn2cnnc2c1C (stereo not drawn) [Example 515]
IC50 [1]: 0.006 µM | IC50 [2]: 0.059 µM | IC50 [3]: 1.23 µM

Cc1c(-c2[nH]c3ccc(C4CC(N(C)C)C4)cc3c2C(C)C)cn2ncnc2c1C (stereo not drawn) [Example 574]
IC50 [1]: 0.001 µM | IC50 [2]: 0.00058 µM | IC50 [3]: 4.25 µM

CCc1c(-c2ccnc(C)c2)[nH]c2ccc(CNC(=O)N3CCN(C)CC3)cc12 [Example 448]
IC50 [1]: 1.52 µM | IC50 [2]: 0.134 µM | IC50 [3]: 1.25 µM

CCN(CC)CC(=O)NC1CCC(c2ccc3[nH]c(-c4cn5ncnc5c(C)c4C)c(C(C)C)c3c2)CC1 (stereo not drawn) [Example 126]
IC50 [1]: 0.00051 µM | IC50 [2]: 0.0023 µM | IC50 [3]: > 50 µM

CCc1c(-c2ccnc(C)c2)[nH]c2ccc(CC3CCCN3)cc12 (stereo not drawn) [Example 420]
IC50 [1]: 0.306 µM | IC50 [2]: 0.038 µM | IC50 [3]: 1.06 µM

COc1cc(-c2[nH]c3ccc(C4CCC(N5C[C@@H](C)O[C@@H](C)C5)CC4)cc3c2C(C)C)cn2ncnc12 (stereo partly drawn) [Example 40]
IC50 [1]: 0.00075 µM | IC50 [2]: 0.0012 µM | IC50 [3]: 2.51 µM
